Key:
[1] = target: T1, von Hippel-Lindau disease tumor suppressor/Androgen receptor (Homo sapiens, UniProt P10275+P40337); assay: Protac activity at VHL/Androgen receptor in human LNCaP cells assessed as Androgen receptor degradation; assay type: cell-based
Target sequence in this assay (P10275 whole entry): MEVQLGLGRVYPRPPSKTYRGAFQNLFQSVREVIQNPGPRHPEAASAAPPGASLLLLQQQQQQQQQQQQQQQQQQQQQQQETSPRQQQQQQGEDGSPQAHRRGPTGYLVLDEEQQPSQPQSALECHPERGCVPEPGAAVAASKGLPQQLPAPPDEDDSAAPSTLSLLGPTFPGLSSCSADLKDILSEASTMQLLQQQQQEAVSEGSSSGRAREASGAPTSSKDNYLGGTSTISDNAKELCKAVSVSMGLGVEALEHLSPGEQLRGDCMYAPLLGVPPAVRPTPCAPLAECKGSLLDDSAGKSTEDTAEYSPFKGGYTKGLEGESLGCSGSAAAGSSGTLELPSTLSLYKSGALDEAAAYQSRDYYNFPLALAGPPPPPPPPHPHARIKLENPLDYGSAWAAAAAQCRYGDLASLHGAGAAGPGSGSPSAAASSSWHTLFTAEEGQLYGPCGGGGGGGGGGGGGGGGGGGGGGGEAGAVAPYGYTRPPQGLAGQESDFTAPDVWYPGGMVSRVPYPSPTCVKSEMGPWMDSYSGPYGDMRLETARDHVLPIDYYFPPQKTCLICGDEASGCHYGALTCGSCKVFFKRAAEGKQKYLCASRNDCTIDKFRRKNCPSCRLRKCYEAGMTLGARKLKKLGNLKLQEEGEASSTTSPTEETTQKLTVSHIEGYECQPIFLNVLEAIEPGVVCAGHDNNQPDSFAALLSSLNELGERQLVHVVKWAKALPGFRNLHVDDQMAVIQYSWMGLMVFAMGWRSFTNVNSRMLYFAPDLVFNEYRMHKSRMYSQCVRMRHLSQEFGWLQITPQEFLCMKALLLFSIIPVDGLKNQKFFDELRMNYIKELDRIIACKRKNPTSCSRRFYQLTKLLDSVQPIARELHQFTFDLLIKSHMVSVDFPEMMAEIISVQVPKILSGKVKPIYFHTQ
Target sequence in this assay (P40337 whole entry): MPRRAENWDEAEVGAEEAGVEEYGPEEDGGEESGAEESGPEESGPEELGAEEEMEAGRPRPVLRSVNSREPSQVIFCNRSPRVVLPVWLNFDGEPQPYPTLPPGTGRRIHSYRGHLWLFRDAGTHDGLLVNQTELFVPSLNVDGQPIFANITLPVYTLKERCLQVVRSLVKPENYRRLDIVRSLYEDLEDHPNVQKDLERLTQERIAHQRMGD

[2] = target: T1, von Hippel-Lindau disease tumor suppressor/Androgen receptor; assay: Protac activity at VHL/Androgen receptor in human VCaP cells assessed as Androgen receptor degradation; assay type: cell-based
Target sequence in this assay (P10275 whole entry): as the sequence (P10275 whole entry) above
Target sequence in this assay (P40337 whole entry): as the sequence (P40337 whole entry) above

[3] = target: T1, von Hippel-Lindau disease tumor suppressor/Androgen receptor; assay: Protac activity at VHL (unknown origin)/Androgen receptor (unknown origin) assessed as full-length Androgen receptor degradation measured by immunoblotting method; assay type: protein assay
Target sequence in this assay (P10275 whole entry): as the sequence (P10275 whole entry) above
Target sequence in this assay (P40337 whole entry): as the sequence (P40337 whole entry) above

[4] = target: T1, von Hippel-Lindau disease tumor suppressor/Androgen receptor; assay: Protac activity at VHL (unknown origin)/Androgen receptor splice variant7 (unknown origin) assessed as Androgen receptor degradation measured by immunoblotting method
Target sequence in this assay (P10275 whole entry, looked up, change not shown): as the sequence (P10275 whole entry) above
Target sequence in this assay (P40337 whole entry, looked up, change not shown): as the sequence (P40337 whole entry) above

## Cc1ncsc1-c1ccc([C@H](CC(=O)N2CCC(N3CCC(C#Cc4ccc(C(=O)N[C@H]5C(C)(C)[C@H](Oc6ccc(C#N)c(Cl)c6)C5(C)C)cc4)CC3)CC2)NC(=O)[C@@H]2C[C@@H](O)CN2C(=O)[C@@H](NC(=O)C2(F)CC2)C(C)(C)C)cc1
[1]
  DC50: < 1 nM
[2]
  DC50: < 1 nM

## Cc1ncsc1-c1ccc([C@H](C)NC(=O)[C@@H]2C[C@@H](O)CN2C(=O)[C@@H](NC(=O)CCCCNC(=O)COc2c(-c3csc(N4CCOCC4)n3)ccc(F)c2F)C(C)(C)C)cc1
[3]
  DC50: 2000 nM
[4]
  DC50: 370 nM

From ChEMBL document CHEMBL5137058, “Therapeutic Strategies to Target the Androgen Receptor” (J Med Chem, 2022)
